Measurements: patent US20230143932A1, “PIN6 PROTEINS FOR THE FORMATION OF NODULE-LIKE STRUCTURES” (University of Freiburg, priority 2021, published 2023)

What was measured:
Experiment in all cases: Root organogenesis response to transient auxin treatment (pseudonodule count)
Format in all cases: in vivo
[1] = system: Hordeum vulgare cultivar Golden Promise; details: Hordeum vulgare (barley) roots, 50 μM for 1 hour, counted 7 days after treatment
Method: (§1) In order to investigate the potential impact of auxin and cytokinin treatment on root organogenesis, seeds of the Medicago truncatula cultivar Jester, the Lotus japonicus ecotype Gifu, and the Hordeum vulgare cultivar Golden Promise were sterilized, and then seedlings were grown on FP media (without Nitrogen and Phosphorus) for 3, 7, and 2 days, respectively. Grown plants were transformed to FP media with either control treatment, 50 μM of 2,4-Dichlorophenoxyacetic acid (synthetic auxin), 100 nM of 6-Benzylaminopurine (synthetic cytokinin) or both of the hormones for 1 hour before moving to FP media. FIG. 1A-1C show the number of pseudonodules/Arrested Lateral roots (ALR) counted 7 days after control treatment, treatment with 2,4-Dichlorophenoxyacetic acid (2,4-D), 6-Benzylaminopurine (BAP), or both.

[2] = system: Medicago truncatula cultivar Jester; details: 50 μM for 1 hour, counted 7 days after treatment
Method: as §1

[3] = system: Lotus japonicus ecotype Gifu; details: 50 μM for 1 hour, counted 7 days after treatment
Method: as §1

SMILES: O=C(O)COc1ccc(Cl)cc1Cl [2,4-Dichlorophenoxyacetic acid]
- pseudonodule formation compared with control plants [1]: increased pseudonodule formation
- pseudonodule formation compared with control plants ([1]; listed as auxin): formation of pseudonodules
- pseudonodule formation compared with control plants [2]: increased pseudonodule formation
- pseudonodule formation compared with control plants [3]: increased pseudonodule formation
